Earlier results in PMC7904743, “WIDOCK: a reactive docking protocol for virtual screening of covalent inhibitors” (Journal of Computer-Aided Molecular Design, 2021).
Where two headings read alike, the source gives them in different places.

Experiments:
OTUB2 = conditions: experimental actives if % labeling higher than 50%, cited from earlier work
[1] = thiol reactivity, cited from earlier work
NUDT7 = conditions: protein labeling at 200 μM; experimental actives if % labeling higher than 50%; cited from earlier work
[2] = natural log of average kinetic rate constant
[3] = natural log of average rate constant
[4] = natural log of average rate constant k
[5] = natural logarithm of average rate constant

SMILES	OTUB2 % labeling (OTUB2; OTUB2 protein labeling) [%]	ln(avg k) [1, 2]	ln(avg k) [1, 3]	NUDT7 % labeling (NUDT7) [%]	OTUB2 % labeling (OTUB2) [%]	ln(avg k) [1, 4]	ln(avg k) [1, 5]
O=C(CCl)NC1CCSC1=O (stereo not shown) [PCM-0103062, O=C(CCl)NC1CCSC1=O]	0	-17.032	-17.032	0	–	–	–
O=C(CCl)N1CCN(c2ccccc2F)CC1 [PCM-0102373, O=C(CCl)N1CCN(c2ccccc2F)CC1]	–	–	–	0	0	-15.871	-15.871
CC(C)(C)C(=O)NNC(=O)CCl [PCM-0102855, CC(C)(C)C(=O)NNC(=O)CCl]	0	-17.593	-17.593	7	–	–	–
Cc1ccc(C(C)NC(=O)CCl)cc1C (stereo not shown) [PCM-0102270, Cc1ccc(C(C)NC(=O)CCl)cc1C]	–	–	–	0	51	-16.558	-16.558
O=C(CCl)Nc1ccc(-c2nnc3n2CCCCC3)cc1 [PCM-0102101, O=C(CCl)Nc1ccc(-c2nnc3n2CCCCC3)cc1]	–	–	–	0	28	-15.815	-15.815
O=C(CCl)Nc1ccc(Cl)cc1C(=O)O [PCM-0102127, O=C(CCl)Nc1ccc(Cl)cc1C(=O)O]	–	–	–	0	10	-16.749	-16.749
CS(=O)(=O)N1CCN(C(=O)CCl)CC1 [PCM-0102417, CS(=O)(=O)N1CCN(C(=O)CCl)CC1]	–	–	–	0	0	-15.539	-15.539
O=C(CCl)NNC(=O)c1ccccc1F [PCM-0102510, O=C(CCl)NNC(=O)c1ccccc1F]	–	–	–	0	52	-17.412	-17.412
COC(=O)c1cccc(NC(=O)CCl)n1 [PCM-0102977, COC(=O)c1cccc(NC(=O)CCl)n1]	0	-16.790	-16.790	0	–	–	–
CC1CCCC(NC(=O)NC(=O)CCl)C1C (stereo not shown) [PCM-0102332, CC1CCCC(NC(=O)NC(=O)CCl)C1C]	–	–	–	0	0	-15.913	-15.913
CS(C)(=O)=NC(=O)CCl [PCM-0102969, CS(C)(=O)=NC(=O)CCl]	0	-15.757	-15.757	0	–	–	–
O=C(CCl)N=c1sccn1Cc1ccccc1 [PCM-0102469, O=C(CCl)N=c1sccn1Cc1ccccc1]	–	–	–	0	11	-15.583	-15.583
O=C(CCl)Nc1ccnn1C1CCCC1 [PCM-0102336, O=C(CCl)Nc1ccnn1C1CCCC1]	–	–	–	0	19	-15.629	-15.629
CC(C)c1nnc(NC(=O)CCl)s1 [PCM-0102928, CC(C)c1nnc(NC(=O)CCl)s1]	0	-15.769	-15.769	4	–	–	–
O=C(CCl)N1CCN(C(=O)Nc2ccccc2)CC1 [PCM-0102257, O=C(CCl)N1CCN(C(=O)Nc2ccccc2)CC1]	–	–	–	7	0	-15.051	-15.051
CC1CCCC(NC(=O)CCl)C1C (stereo not shown) [PCM-0102663, CC1CCCC(NC(=O)CCl)C1C]	–	–	–	0	29	-16.862	-16.862
CC(NC(=O)CCl)c1cccs1 (stereo not shown) [PCM-0102180, CC(NC(=O)CCl)c1cccs1]	–	–	–	16	55	-16.321	-16.321
O=C(CCl)N1CCC(C(=O)N2CCCCCC2)CC1 [PCM-0102781, O=C(CCl)N1CCC(C(=O)N2CCCCCC2)CC1]	0	-15.500	-15.500	0	–	–	–
O=C(CCl)NCC(F)(F)F [PCM-0102456, O=C(CCl)NCC(F)(F)F]	–	–	–	0	0	-18.378	-18.378
O=C(CCl)N1CCC(c2nc3ccccc3o2)CC1 [PCM-0102920, O=C(CCl)N1CCC(c2nc3ccccc3o2)CC1]	0	-15.428	-15.428	0	–	–	–
Cc1ccc([N+](=O)[O-])cc1NC(=O)CCl [PCM-0102098, Cc1ccc([N+](=O)[O-])cc1NC(=O)CCl]	–	–	–	12	33	-15.712	-15.712
CCc1nnc(NC(=O)CCl)s1 [PCM-0102166, CCc1nnc(NC(=O)CCl)s1]	–	–	–	21	0	-16.086	-16.086

SMILES	OTUB2 % labeling (OTUB2; OTUB2 protein labeling) [%]	ln(avg k) [1, 2]	ln(avg k) [1, 3]	NUDT7 % labeling (NUDT7) [%]	OTUB2 % labeling (OTUB2) [%]	ln(avg k) [1, 4]	ln(avg k) [1, 5]
O=C(CCl)Nc1ccc(C(F)(F)F)cc1 [PCM-0102323, O=C(CCl)Nc1ccc(C(F)(F)F)cc1]	–	–	–	7	17	-15.637	-15.637
O=C(CCl)Nc1ccc(I)cc1 [PCM-0102278, O=C(CCl)Nc1ccc(I)cc1]	–	–	–	9	24	-15.784	-15.784
CC(C)N(C(=O)CCl)C1CCCCC1 [PCM-0102941, CC(C)N(C(=O)CCl)C1CCCCC1]	0	-16.528	-16.528	17	–	–	–
CC(=O)Nc1cccc(NC(=O)CCl)c1 [PCM-0102172, CC(=O)Nc1cccc(NC(=O)CCl)c1]	–	–	–	0	0	-15.748	-15.748
CC(C)(C)OC(=O)CNC(=O)CCl [PCM-0102981, CC(C)(C)OC(=O)CNC(=O)CCl]	0	-17.661	-17.661	0	–	–	–
CC(C)(C)N(Cc1cccc(F)c1)C(=O)CCl [PCM-0102833, CC(C)(C)N(Cc1cccc(F)c1)C(=O)CCl]	0	-16.964	-16.964	0	–	–	–
CC(C)(C)c1ccc(NC(=O)CCl)cc1 [PCM-0102622, CC(C)(C)c1ccc(NC(=O)CCl)cc1]	–	–	–	0	32	-15.995	-15.995
CCN1CCC(NC(=O)CCl)CC1 [PCM-0102103, CCN1CCC(NC(=O)CCl)CC1]	–	–	–	0	0	-15.455	-15.455
O=C(CCl)N1CCC(C(=O)N2CCCC2)CC1 [PCM-0102655, O=C(CCl)N1CCC(C(=O)N2CCCC2)CC1]	–	–	–	0	0	-15.795	-15.795
CNC(=O)C1CCCN1C(=O)CCl (stereo not shown) [PCM-0102518, CNC(=O)C1CCCN1C(=O)CCl]	–	–	–	0	0	-16.106	-16.106
CS(=O)(=O)c1ccc(NC(=O)CCl)cc1 [PCM-0102335, CS(=O)(=O)c1ccc(NC(=O)CCl)cc1]	–	–	–	6	30	-15.005	-15.005
Cc1cc(NC(=O)CCl)no1 [PCM-0102500, Cc1cc(NC(=O)CCl)no1]	–	–	–	0	35	-15.955	-15.955
O=C(CCl)N1CCN(Cc2cccs2)CC1 [PCM-0102243, O=C(CCl)N1CCN(Cc2cccs2)CC1]	–	–	–	8	0	-15.851	-15.851
O=C(CCl)N1CCN(S(=O)(=O)c2cccs2)CC1 [PCM-0102241, O=C(CCl)N1CCN(S(=O)(=O)c2cccs2)CC1]	–	–	–	12	0	-15.262	-15.262
CC(NC(=O)CCl)c1ccco1 (stereo not shown) [PCM-0102798, CC(NC(=O)CCl)c1ccco1]	19	-16.737	-16.737	14	–	–	–
Cc1cc(NC(=O)CCl)n(-c2ccccc2F)n1 [PCM-0103066, Cc1cc(NC(=O)CCl)n(-c2ccccc2F)n1]	44	-15.986	-15.986	0	–	–	–
Cc1ccc(S(=O)(=O)N2CCN(C(=O)CCl)CC2)c(C)c1 [PCM-0102628, Cc1ccc(S(=O)(=O)N2CCN(C(=O)CCl)CC2)c(C)c1]	–	–	–	0	0	-15.546	-15.546
O=C(CCl)N1CCCCCCC1 [PCM-0102377, O=C(CCl)N1CCCCCCC1]	–	–	–	0	0	-15.780	-15.780
Cc1nn(C)c(C)c1NC(=O)CCl [PCM-0102949, Cc1nn(C)c(C)c1NC(=O)CCl]	0	-16.344	-16.344	0	–	–	–
O=C(CCl)N1c2ccccc2NC(=O)C12CCCC2 [PCM-0102159, O=C(CCl)N1c2ccccc2NC(=O)C12CCCC2]	–	–	–	18	0	-14.824	-14.824
O=C(CCl)N1CCN(S(=O)(=O)c2ccc(F)c(F)c2)CC1 [PCM-0102361, O=C(CCl)N1CCN(S(=O)(=O)c2ccc(F)c(F)c2)CC1]	–	–	–	0	0	-15.093	-15.093
